# pEC50: −log10 of the molar value.
# Test system: Aβ42 secretion
# Test: Cellular γ-secretase assay (inhibition of Aβ42 secretion)
# Assay type: cell-based
# Settings: Homo sapiens, 22 h, human neuroglioma H4 cells overexpressing human APP, 22 hours incubation
# Method: Cellular γ-Secretase Assay
# The compounds were investigated in accordance with the test given hereinafter.
# Human neuroglioma H4 cells overexpressing human APP were plated at 30,000 cells/well/200 μL in 96-well plates in IMDM media containing 10% FCS, […] Hygromycin B and incubated for 2 hours at 37° C., 5% CO2 prior to adding test compounds.
# Compounds for testing were dissolved in 100% Me2SO yielding in a 10 mM stock solution. Typically 12 μL of these solutions were further diluted in 1000 μL of IMDM media (w/o FCS). Subsequent 1:1 dilutions gave a ten point dose response curve. 100 μL of each dilution was added to the cells in 96-well plates. Appropriate controls using vehicle only and reference compound were applied to this assay. The final concentration of Me2SO was 0.4%.
# After incubation for 22 hours at 37° C., 5% CO2, 50 μL supernatant was transferred into round-bottom 96-well polypropylene plates for detection of Aβ42. 50 μL assay buffer (50 mM Tris/Cl, pH 7.4, 60 mM NaCl, 0.5% BSA, 1% TWEEN 20) was added to the wells followed by the addition of 100 μL of detection antibody (ruthenylated BAP15 0.0625 μg/mL in assay buffer). 50 μL of a premix of capture antibody (biotinylated 6E10 antibody, 1 μg/mL) and Streptavidin-coated magnetic beads (Dynal M-280, 0.125 mg/mL) were preincubated for 1 hour at room temperature before adding the assay plates. Assay plates were incubated on a shaker for 3 hours at room temperature and finally read in the Bioveris M8 Analyser according to the manufacturer's instructions (Bioveris).
# IC50 values for inhibition of Aβ42 secretion were calculated by nonlinear regression fit analysis using XLfit 4.0 software (IDBS).
row,Structure (SMILES),pEC50
1,"CCN1CCCC(c2ccc3[nH]c(C(=O)Nc4cccc(F)c4)cc3c2)C1 (centres unmarked) [Example 70, 5-(1-Ethylpiperidin-3-yl)-N-(3-fluorophenyl)-1H-indole-2-carboxamide]",6.09
2,"Cc1cccc(NC(=O)c2cc3cc(C4CCCN(C(C)C)C4)ccc3[nH]2)c1 (centres unmarked) [Example 33, 5-(1-Isopropyl-piperidin-3-yl)-1H-indole-2-carboxylic acid m-tolylamide]",5.80
3,"CCCN1CCC(c2ccc3[nH]c(C(=O)Nc4ccc(F)cc4)cc3c2)CC1 [Example 40, 5-[1-Propyl-piperidin-4-yl]-1H-indole-2-carboxylic acid (4-fluoro-phenyl)-amide]",5.77
4,"O=C(Nc1cccc(F)c1)c1cc2cc(C3CCNC3)ccc2[nH]1 (centres unmarked) [Example 8, N-(3-Fluorophenyl)-5-(pyrrolidin-3-yl)-1H-indole-2-carboxamide]",6.20
5,"O=C(Nc1cccc(F)c1)c1cc2cc([C@@H]3CCCN(C4CC4)C3)ccc2[nH]1 [Example 117, (S)-5-(1-Cyclopropylpiperidin-3-yl)-N-(3-fluorophenyl)-1H-indole-2-carboxamide]",5.36
6,"CC(C)N1CCC(c2ccc3[nH]c(C(=O)Nc4ccc(F)cc4)cc3c2)CC1 [Example 48, 5-(1-Isopropyl-piperidin-4-yl)-1H-indole-2-carboxylic acid (4-fluoro-phenyl)-amide]",5.60
7,"C=CCN1CCC(c2ccc3[nH]c(C(=O)Nc4ccc(F)cc4)cc3c2)CC1 [Example 39, 5-[1-Allyl-piperidin-4-yl]-1H-indole-2-carboxylic acid (4-fluoro-phenyl)-amide]",5.88
8,"Cc1cc(F)cc(NC(=O)c2cc3cc(C4CCCN(C(C)C)C4)ccc3[nH]2)c1 (centres unmarked) [Example 34, N-(3-Fluoro-5-methylphenyl)-5-(1-isopropylpiperidin-3-yl)-1H-indole-2-carboxamide]",6.03
9,"O=C(Nc1cc(F)cc(F)c1)c1cc2cc([C@@H]3CCN(CC(F)(F)F)C3)ccc2[nH]1 [Example 104, 5-[(S)-1-(2,2,2-Trifluoro-ethyl)-pyrrolidin-3-yl]-1H-indole-2-carboxylic acid (3,5-difluoro-phenyl)-amide]",6.28
10,"CCC1(c2ccc3[nH]c(C(=O)Nc4cc(F)cc(F)c4)cc3c2)CCC(=O)NC1=O (centres unmarked) [Example 19, 5-(3-Ethyl-2,6-dioxo-piperidin-3-yl)-1H-indole-2-carboxylic acid (3,5-difluoro-phenyl)-amide]",5.58
11,"N#CCN1CCC(c2ccc3c(c2)cc(C(=O)Nc2cncc(F)c2)n3CC#N)C1 (centres unmarked) [Example 81, 1-Cyanomethyl-5-(1-cyanomethyl-pyrrolidin-3-yl)-1H-indole-2-carboxylic acid (5-fluoro-pyridin-3-yl)-amide]",5.37
12,"CC(C)N1CCC[C@@H](c2ccc3[nH]c(C(=O)Nc4cccc(F)c4)cc3c2)C1 [Example 111, 5-((S)-1-Isopropyl-piperidin-3-yl)-1H-indole-2-carboxylic acid (3-fluoro-phenyl)-amide]",6.06
13,"CC(C)N1CCCC(c2ccc3[nH]c(C(=O)Nc4cc(F)cc(C#N)c4)cc3c2)C1 (centres unmarked) [Example 31, 5-(1-Isopropyl-piperidin-3-yl)-1H-indole-2-carboxylic acid (3-cyano-5-fluoro-phenyl)-amide]",5.62
14,"CN1CCC(c2ccc3[nH]c(C(=O)Nc4cccc(F)c4)cc3c2)C1 (centres unmarked) [Example 4, N-(3-Fluorophenyl)-5-(1-methylpyrrolidin-3-yl)-1H-indole-2-carboxamide]",6.40
15,"CC(C)N1CCC(c2ccc3[nH]c(C(=O)Nc4ccc(F)cc4F)cc3c2)CC1 [Example 29, 5-(1-Isopropyl-piperidin-4-yl)-1H-indole-2-carboxylic acid (2,4-difluoro-phenyl)-amide]",4.90
16,"CC(C)N1CCC(c2ccc3[nH]c(C(=O)Nc4cccc(Cl)c4)cc3c2)CC1 [Example 23, 5-(1-Isopropyl-piperidin-4-yl)-1H-indole-2-carboxylic acid (3-chloro-phenyl)-amide]",6.05
17,C[C@H](CN1CCCC1)c1ccc2[nH]c(C(=O)Nc3cccc(F)c3)cc2c1 [Example 118],6.12
18,"CS(=O)(=O)N1CCCC(c2ccc3[nH]c(C(=O)Nc4cc(F)cc(F)c4)cc3c2)C1 (centres unmarked) [Example 49, 5-(1-Methanesulfonyl-piperidin-3-yl)-1H-indole-2-carboxylic acid (3,5-difluoro-phenyl)-amide]",6.83
19,"COCCN1CCCC(c2ccc3[nH]c(C(=O)Nc4cc(F)cc(F)c4)cc3c2)C1 (centres unmarked) [Example 60, 5-[1-(2-Methoxy-ethyl)-piperidin-3-yl]-1H-indole-2-carboxylic acid (3,5-difluoro-phenyl)-amide]",5.86
20,"CC(c1ccc2[nH]c(C(=O)Nc3cc(F)cc(F)c3)cc2c1)N1CCCC1 (centres unmarked) [Example 90, 5-(1-Pyrrolidin-1-yl-ethyl)-1H-indole-2-carboxylic acid (3,5-difluoro-phenyl)-amide]",6.06
21,"O=C(Nc1cncc(F)c1)c1cc2cc(C3CCN(Cc4ccccc4)C3)ccc2[nH]1 (centres unmarked) [Example 74, 5-(1-Benzyl-pyrrolidin-3-yl)-1H-indole-2-carboxylic acid (5-fluoro-pyridin-3-yl)-amide]",5.73
22,"O=C(Nc1cncc(F)c1)c1cc2cc(C3CCN(CC4CC4)C3)ccc2[nH]1 (centres unmarked) [Example 79, 5-(1-(Cyclopropylmethyl)pyrrolidin-3-yl)-N-(5-fluoropyridin-3-yl)-1H-indole-2-carboxamide]",6.01
23,"O=C(Nc1ccc(F)cc1)c1cc2cc(C3CCN(Cc4ccccc4)CC3)ccc2[nH]1 [Example 38, 5-(1-Benzyl-piperidin-4-yl)-1H-indole-2-carboxylic acid (4-fluoro-phenyl)-amide]",5.89
24,"CC(c1ccc2[nH]c(C(=O)Nc3cc(F)cc(F)c3)cc2c1)N1CCCC1=O (centres unmarked) [Example 88, 5-[1-(2-Oxo-pyrrolidin-1-yl)-ethyl]-1H-indole-2-carboxylic acid (3,5-difluoro-phenyl)-amide]",6.49
25,"COCCN1CCC(c2ccc3[nH]c(C(=O)Nc4ccc(F)cc4)cc3c2)CC1 [Example 37, 5-[1-(2-Methoxy-ethyl)-piperidin-4-yl]-1H-indole-2-carboxylic acid (4-fluoro-phenyl)-amide]",5.84
26,"Cn1cnc(S(=O)(=O)N2CCCC(c3ccc4[nH]c(C(=O)Nc5cc(F)cc(F)c5)cc4c3)C2)c1 (centres unmarked) [Example 58, 5-[1-(1-Methyl-1H-imidazole-4-sulfonyl)-piperidin-3-yl]-1H-indole-2-carboxylic acid (3,5-difluoro-phenyl)-amide]",6.13
27,"CCN1CCC(c2ccc3[nH]c(C(=O)Nc4ccc(F)cc4)cc3c2)CC1 [Example 42, 5-[1-Ethyl-piperidin-4-yl]-1H-indole-2-carboxylic acid (4-fluoro-phenyl)-amide]",5.72
28,"C[C@@H](c1ccc2[nH]c(C(=O)Nc3cc(F)cc(F)c3)cc2c1)[C@@H]1CCN(CC(F)(F)F)C1 [Example 120, N-(3,5-Difluorophenyl)-5-((R)-1-((S)-1-(2,2,2-trifluoroethyl)pyrrolidin-3-yl)ethyl)-1H-indole-2-carboxamide]",5.13
29,"O=C(Nc1cccc(F)c1)c1cc2cc(C3CCN(CC(F)(F)F)C3)ccc2[nH]1 (centres unmarked) [Example 15, N-(3-Fluorophenyl)-5-(1-(2,2,2-trifluoroethyl)pyrrolidin-3-yl)-1H-indole-2-carboxamide]",5.90
